“Also recorded” adds a separate entry of the source.
How the values were obtained:
MIP/CPT cells = assay: Transient transfection of SPARC fragments, cell viability (MTS) with irinotecan, resistant cells; format: cell-based; conditions: cells transfected with control (empty vector), 500 uM CPT-11
Protocol: Polynucleotide fragments corresponding to SEQ ID NO: 2, SEQ ID NO: 4 or SEQ ID NO: 6 were amplified by PCR and inserted into the pSecTag vector (Invitrogen), and verified by sequencing.
Colorectal cell lines MIP101 and MIP/CPT cells were maintained in Dulbecco's modified Eagle's medium (DMEM) (Invitrogen) supplemented with 10% fetal bovine serum (FBS) (Invitrogen), 1% penicillin/streptomycin (Invitrogen) at 37° C. and 5% CO2.
(§1) Resistant MIP101 cells were developed following long-term incubation with incremental concentrations of 5 fluorouracil (5-FU) (10-500 uM), irinotecan (CPT) (1-50 uM; Pharmacia), cisplatin (CIS) (1-100 uM) or etoposide (ETO) (0.1-5 uM: Sigma-Aldrich). The concentration of each agent was increased 10% every 2 weeks for a 6 month period.
Transient transfections were performed as previously described (Tai TC et al., 2001. J Neurochem; 76:1851-9) Briefly, MIP 101 colorectal cancer cells and resistant MIP/CPT cells grown to 50-60% confluency in 96-well tissue culture plates were transfected with 1.0 μg of vector (control) or vector+SPARC fragments using PEI transfection (Tai, T. C. et al., 2002. Mol Pharmacol 61:1385-92). […] Cell proliferation was assessed by MTS assay (Promega). […]

MIP/5FU cells = assay: Peptide assay, cell viability (MTS), 5FU resistant cells; format: cell-based; conditions: for cell viability / sensitivity to 5-FU: peptide 96 or 200 μg/ml plus 5-FU 500 μM, compared to 5-FU alone
Protocol: as §1
(§2) Sensitive MIP 101 and resistant MIP/5FU cells were seeded at a density of 8,000 cells/well (96-well plate) in DMEM supplemented with 10% FBS, 1% penicillin/streptomycin. After incubation at 37° C. with 5% CO2 for 48 hrs, the media was removed and fresh serum-free conditioned medium (VP-SFM, Invitrogen) containing the peptide of interest was incubated for an additional 48 hrs in the presence or absence of 500 μM 5-FU. Cell viability was assessed by MTS assay.
(§3) Peptides were custom synthesized by Sigma. Peptides A, A1, A2, A3 were dissolved in 0.1% DMSO. Peptides B8, B14, B8-scramble and B14-scramble were dissolved in PBS. For the MTS cell viability assay, a dose response curve was obtained using a “high” peptide concentration of 200 μg/ml, and a “low” peptide concentration of […].
(§4) For the MTS assay, 3-(4,5-dimethylthiazol-2-yl)-5-(3-carboxy-methoxyphenyl)-2-(4-sulfophenyl)-2H-tetrazolium inner salt (MTS) and phenazine methosulfate (PMS), purchased from Promega (Madison, Wis.), were mixed in the proportions 2:0.92 μg/ml, and 25 μl of the mixture was added to each well. After incubation at 37° C. with 5% CO2 for 2 h, the absorbance of each well at 490 nm was measured in a 96-well plate reader (Versa Max, version 4.8, Molecular Devices Co.) according to the manufacturer's instructions. Cell viability was expressed as a percentage of control.

MIP 101 cells = assay: Peptide assay, cell viability (MTS), 5FU sensitive cells; format: cell-based; conditions: for cell viability: 96 or 200 μg/ml
Protocol: as §2, §3, §4

resistant tumours = conditions: protein administered; response of resistant tumours to 5-fluorouracil, irinotecan, cisplatin or etoposide; cited from earlier work
[1] = peptide alone, high concentration (200 μg/ml)
[2] = peptide high concentration (200 μg/ml) in combination with 5-FU 500 μM

Molecule	% cell viability (MIP 101 cells; [1])	% cell viability (MIP 101 cells; [2])	% cell viability (MIP/5FU cells; [1])	% cell viability (MIP/5FU cells; [2])	also measured
CCc1c2c(nc3ccc(OC(=O)N4CCC(N5CCCCC5)CC4)cc13)-c1cc3c(c(=O)n1C2)COC(=O)[C@]3(O)CC [CPT-11, irinotecan]	–	–	–	–	cell viability (MIP/CPT cells): remained viable
O=c1[nH]cc(F)c(=O)[nH]1 [Peptide 5-FU, 5-fluorouracil, reference compound]	–	–	–	–	cell viability (MIP/5FU cells; 5-FU alone (500 μM)): greater viability; also recorded: no effect on cell viability
A1: first 17 amino acids of the full length SPARC protein: MRAWIFFLLCLAGRALA (listed as Homo sapiens) [Peptide A1]	did not significantly affect	did not significantly affect	did not significantly affect	did not significantly affect	–
A2: first 17 amino acids of SPARC with additional N-terminal residues: ACLPLRVPSTMRAWIFFLLCLAGRALA (listed as Homo sapiens) [Peptide A2]	did not significantly affect	did not significantly affect	did not significantly affect	did not significantly affect	–
A3: first 17 amino acids of SPARC with additional N-terminal residues: CLPPACLPLRVPSTMRAWIFFLLCLAGRALA (listed as Homo sapiens) [Peptide A3]	did not significantly affect	did not significantly affect	did not significantly affect	did not significantly affect	–
A: first 17 amino acids of full length SPARC with additional N-terminal residues: ESALCLPPACLPLRVPSTMRAWLFFLLCLAGRALA (ESALCLPPACLPLRVPSTMRAWIFFLLCLAGRALA; listed as Homo sapiens)	did not significantly affect	did not significantly affect	did not significantly affect	did not significantly affect	–
B8-SCR: scrambled B8 negative control peptide QPLEAVQPTAVEEDAEVETTEEV (B8 scrambled) [Peptide B8-SCR, reference compound]	did not significantly affect	did not significantly affect	did not significantly affect	did not significantly affect	–
B14: SPARC peptide CQNHHCKHGKVCELDENNTPMCVCQDPTSCP (SEQ ID NO: 9) (listed as Homo sapiens) [Peptide B14]	–	–	–	–	cell viability (MIP 101 cells; peptide alone): did not significantly affect viability; cell viability / sensitivity to 5-FU (MIP/5FU cells): cell viability decreased; cell viability (MIP/5FU cells; peptide alone, 96 or 200 μg/ml): did not significantly affect viability
H-APQQEALPDETEVVEETVAEVTE-OH [Peptide B8]	–	–	–	–	cell viability (MIP 101 cells; peptide alone): did not affect cell viability; cell viability / sensitivity to 5-FU (MIP/5FU cells): increasing sensitivity of the resistant cells; cell viability (MIP/5FU cells; peptide alone, 96 or 200 μg/ml): did not affect cell viability
Secreted protein acidic and rich in cysteine (protein, listed as Homo sapiens, 303 amino acid SPARC protein, also known as osteonectin) MRAWIFFLLCLAGRALAAPQQEALPDETEVVEETVAEVTEVSVGANPVQVEVGEFDDGAEETEEEVVAENPCQNHHCKHGKVCELDENNTPMCVCQDPTSCPAPIGEFEKVCSNDNKTFDSSCHFFATKCTLEGTKKGHKLHLDYIGPCKYIPPCLDSELTEFPLRMRDWLKNVLVTLYERDEDNNLLTEKQKLRVKKIHENEKRLEAGDHPVELLARDFEKNYNMYIFPVHWQFGQLDQHPIDGYLSHTELAPLRAPLIPMEHCTTRFFETCDLDNDKYIALDEWAGCFGIKQKDIDKDLVI	–	–	–	–	chemosensitizing activity (resistant tumours): chemosensitizing activity has been demonstrated

— US8440625B2, “Secreted protein acidic and rich in cysteine (SPARC) as chemotherapeutic sensitizers” (University of British Columbia, priority 2006, dated 2013)
